Among the data in the METLIN SMRT retention time set (Domingo-Almenara et al. 2019) are RP-LC retention time values, retold here.

This series in a line: gradient 5% acetonitrile 3 min, to 50% in 2 min, to 85% in 15 min, held 3 min, 100 µL/min. The following applies: column: Zorbax Extend-C18 2.1 x 50 mm; eluents: water / acetonitrile, 0.1% formic acid. The method in brief:
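Pure standards were analyzed in mixtures of ~100 molecules using HPLC coupled to a quadrupole time-of-flight mass spectrometer, in both positive and negative ionization mode. Separation used a Zorbax Extend-C18 column (2.1 × 50 mm, 1.8 μm) at 100 μL/min, with water and acetonitrile each containing 0.1% formic acid. Dead and dwell volumes were 40 μL and 900 μL, and data were collected over 3 months. Retention time was read from computationally picked adduct peaks, each inspected manually.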
The compound `O=C(Nc1cccc(F)c1)C1CCc2nc(N3CCOCC3)ncc2C1` (stereo not drawn) showed an RP-LC retention time of 778 s.
In the case of `O=C(CCSc1ccccc1)NCC1CCN(C(=O)COc2ccccc2)CC1`, the RP-LC retention time came out at 757 s.
Under `CCOc1ccccc1NC(=O)Cn1c(=O)n(-c2ccccc2)c(=O)c2c1cc(C)n2C` stands 909 s; under `CCN1CCCn2cc(S(=O)(=O)N3CCN(c4ccccc4Cl)CC3)cc2C1=O`, 912 s; under `Cc1cc(NCCCC(=O)NC2CC2)n2nc(-c3cccnc3)nc2n1`, 577 s.
The value for `CCN1C(=O)c2cccnc2Sc2cc(NC(=O)c3ccc(C)cc3)ccc21` was 859 s; that for `Cc1cccc(NC(=O)C2CN(C(=O)c3cc(C)on3)C2)n1` was 601 s.
Under `O=C(Nc1ccccc1F)N1CCCC1c1nc(-c2ccc(F)cc2F)no1` (stereo not drawn) stands 937 s; under `O=S(=O)(c1ccc(N2CCN(c3ccccn3)CC2)nn1)C1CCCCC1`, 608 s.
The compound `COc1cc(OC)c(OC)cc1CN1CC[C@]2(CO)CN(Cc3ccccc3)C[C@@H]2C1` showed an RP-LC retention time of 597 s.
Under `O=C(NC1CC1)c1nnn2c1COC(c1ccc(Cl)cc1)C2` (stereo not drawn) stands 859 s.
Under `CC(C)NC(=O)CN1CCN(c2ncc(C(=O)Nc3ccccc3)c(N)n2)CC1` stands 609 s; under `COc1ccc(-c2noc(Cc3nnc(-c4cccc(C)c4)o3)n2)cc1F`, 1040 s; under `O=C(NC1CCN(c2cc(-c3cccs3)[nH]n2)CC1)c1ccc(F)cc1F`, 769 s.
The value for `Cc1ccc(Nc2c(-c3ccc(C)cc3)nc3ccc(C)cn23)cc1` was 797 s; that for `COc1ccc(-c2noc(Cn3ccn(-c4c(C)cccc4C)c(=O)c3=O)n2)cc1` was 870 s.
Regarding `CCCN(CC1CCOC1)S(=O)(=O)c1cccc(C(F)(F)F)c1` (stereo not drawn), the RP-LC retention time was 1000 s.
The value for `CC(C)NC(=O)c1ccc2ccnc(N3CCN(c4ccc(Cl)cc4)CC3)c2c1` was 816 s; that for `O=C(Nc1ccc(Cl)cc1F)C1Oc2ccccc2NC1=O` (stereo not drawn) was 824 s; that for `C=CCn1ccc2c(OCC(=O)Nc3ccc4c(c3)OCCO4)cccc2c1=O` was 818 s.
The value for `CN(C)C(CNC(=O)Nc1cccs1)c1cccs1` (stereo not drawn) was 556 s.
`CCc1nc2cc(-c3noc(-c4n[nH]c5ccccc45)n3)ccc2o1`: the RP-LC retention time is 645 s.
The value for `C[C@@H](Cc1ccc(OCC(=O)O)cc1)NC[C@@H](O)c1cccc(Cl)c1` was 704 s; that for `CC(=O)N1CCCC1c1nc(C2CN(S(=O)(=O)c3cccs3)C2)no1` (stereo not drawn) was 703 s.
The value for `Cc1ccc(-c2cc(C(=O)NCCCN3CCC(C)CC3)c(C)[nH]2)cc1C` was 725 s; that for `Cc1ccc(C(=O)Nc2nc(-c3ccc4c(c3)NC(=O)CO4)cs2)cc1` was 873 s; that for `Cn1cnc(S(=O)(=O)N2CCCCC2c2nc(-c3ccncc3)n[nH]2)c1` (stereo not drawn) was 646 s.
Under `CN(CC(=O)Nc1ccc(F)c(F)c1F)c1nc2c(Cl)cccc2s1` stands 1000 s.
Compound `Cc1ccc(NC(=O)N2CC(c3nc(C(C)C)nn3C)C2)cc1F` showed an RP-LC retention time of 706 s.
The value for `CC1=C(c2ccc(C)cc2)S(=O)(=O)N=C1N1CCCN(C(=O)c2ccccc2F)CC1` was 846 s; that for `O=C(Cn1c(=O)c2cc(-c3ccco3)nn2c2ncccc21)NC1CCCC1` was 698 s; that for `CCc1ccc(NC(=O)Cn2c(=O)nc(N3CCC(C)CC3)c3ccccc32)cc1` was 921 s.
The value for `COc1ccc(-c2noc(N3CCC(C(=O)NCCN4CCOCC4)CC3)n2)cc1OC` was 591 s.
